In ChEMBL document CHEMBL2010736 (ACS Med Chem Lett, 2011):
The source made the active and inactive calls. No cut-off for these calls is given here.

Key:
[1] = biological target: T1, Adenosine receptor A1 (Homo sapiens) (UniProt P30542); test: Agonist activity at human recombinant adenosine receptor-1 expressed in CHO cells assessed as inhibition of forskolin-stimulated cAMP production at 10 uM preincubated for 45 mins prior forskolin-induction measured after 15 mins by immunoassay relative to 10 uM CPA; type: functional, cell-based
T1 sequence (whole entry): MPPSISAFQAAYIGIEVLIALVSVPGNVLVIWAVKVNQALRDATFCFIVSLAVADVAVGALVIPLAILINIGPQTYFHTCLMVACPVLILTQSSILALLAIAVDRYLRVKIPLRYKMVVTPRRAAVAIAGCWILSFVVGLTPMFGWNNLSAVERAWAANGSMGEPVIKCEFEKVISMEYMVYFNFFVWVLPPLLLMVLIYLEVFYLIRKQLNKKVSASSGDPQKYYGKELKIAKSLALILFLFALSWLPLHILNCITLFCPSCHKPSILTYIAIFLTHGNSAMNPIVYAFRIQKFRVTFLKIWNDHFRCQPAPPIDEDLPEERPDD

[2] = biological target: T1, Adenosine receptor A1 (Homo sapiens); test: Displacement of [3H]R-PIA from human recombinant adenosine receptor-1 expressed in CHO cell membrane at 10 uM after 60 mins by liquid scintillation counting; type: cell membranes
Adenosine receptor A2a [3] = biological target: T2, Adenosine receptor A2a (Homo sapiens, UniProt P29274); test: Displacement of [3H]CGS21680 from human recombinant adenosine receptor-2A expressed in HEK293 cell membrane at 10 uM after 60 mins by liquid scintillation counting; type: cell membranes
Adenosine receptor A1 [4] = biological target: T3, Adenosine receptor A1 (Homo sapiens, UniProt P30542); test: Displacement of [3H]R-PIA from human recombinant adenosine receptor-1 expressed in CHO cell membrane after 60 mins by liquid scintillation counting; type: cell membranes
T3 sequence (P30542 whole entry): T1 sequence (whole entry)

Adenosine receptor A2a [5] = biological target: T2, Adenosine receptor A2a; test: Displacement of [3H]CGS21680 from human recombinant adenosine receptor-2A expressed in HEK293 cell membrane after 60 mins by liquid scintillation counting; type: cell membranes
Adenosine receptor A3 = biological target: T4, Adenosine receptor A3 (Homo sapiens, UniProt P0DMS8); test: Displacement of [125I]AB-MECA from human recombinant adenosine receptor-3 expressed in CHO cell membrane after 60 mins by gamma-counting; type: cell membranes
T4 sequence (P0DMS8 whole entry): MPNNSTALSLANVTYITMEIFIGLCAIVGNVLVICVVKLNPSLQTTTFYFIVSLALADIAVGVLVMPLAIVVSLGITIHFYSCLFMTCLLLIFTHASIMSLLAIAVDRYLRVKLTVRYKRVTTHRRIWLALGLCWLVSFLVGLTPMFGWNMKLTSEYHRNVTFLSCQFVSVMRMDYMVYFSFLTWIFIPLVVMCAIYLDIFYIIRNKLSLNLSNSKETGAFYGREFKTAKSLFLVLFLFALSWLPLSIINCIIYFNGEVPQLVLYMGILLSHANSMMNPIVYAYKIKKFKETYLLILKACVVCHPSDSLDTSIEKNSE

Adenosine receptor A1 [6] = biological target: T5, Adenosine receptor A1 (Rattus norvegicus, UniProt P25099); test: Displacement of [3H]R-PIA from rat forebrain adenosine receptor-1
T5 sequence (P25099 whole entry): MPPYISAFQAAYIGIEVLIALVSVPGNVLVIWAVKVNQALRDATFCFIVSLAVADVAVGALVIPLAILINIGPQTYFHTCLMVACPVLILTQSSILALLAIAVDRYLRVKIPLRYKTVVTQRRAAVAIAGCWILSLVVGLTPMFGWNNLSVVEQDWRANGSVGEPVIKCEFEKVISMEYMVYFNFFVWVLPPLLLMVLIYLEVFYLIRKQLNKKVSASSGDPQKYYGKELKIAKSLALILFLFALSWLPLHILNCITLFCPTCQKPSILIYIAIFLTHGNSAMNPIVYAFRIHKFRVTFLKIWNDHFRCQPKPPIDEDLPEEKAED

Homo sapiens [7] = organism: Homo sapiens; test: Selectivity ratio of Ki for human recombinant adenosine receptor-3 to Ki for human recombinant adenosine receptor-1
Adenosine receptor A1 [8] = biological target: T3, Adenosine receptor A1; test: Agonist activity at human recombinant adenosine receptor-1 expressed in CHO cells assessed as inhibition of forskolin-stimulated cAMP production preincubated for 45 mins prior forskolin-induction measured after 15 mins by immunoassay; type: functional, cell-based
[9] = biological target: T6, Adenosine receptor A1 (Rattus norvegicus) (UniProt P25099); test: Antagonist activity at adenosine receptor-1 in rat adipocytes; type: functional, cell-based
T6 sequence (whole entry): T5 sequence (P25099 whole entry)

[10] = biological target: T7, Adenosine receptor A3 (Rattus norvegicus) (UniProt P28647); test: Partial agonist activity at rat adenosine receptor-3; type: functional
T7 sequence (whole entry): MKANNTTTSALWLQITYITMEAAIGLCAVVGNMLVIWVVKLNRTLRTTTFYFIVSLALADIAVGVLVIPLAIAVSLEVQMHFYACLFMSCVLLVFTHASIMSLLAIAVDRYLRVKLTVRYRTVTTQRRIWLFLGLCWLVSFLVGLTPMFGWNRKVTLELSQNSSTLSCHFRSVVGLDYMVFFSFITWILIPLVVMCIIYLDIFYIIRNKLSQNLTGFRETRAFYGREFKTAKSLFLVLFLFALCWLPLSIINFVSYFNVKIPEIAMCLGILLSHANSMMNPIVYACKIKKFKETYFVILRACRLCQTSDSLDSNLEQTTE

Homo sapiens [11] = organism: Homo sapiens; test: Selectivity ratio of Ki for human recombinant adenosine receptor-1 to Ki for human recombinant adenosine receptor-3

T2 sequence (P29274 whole entry): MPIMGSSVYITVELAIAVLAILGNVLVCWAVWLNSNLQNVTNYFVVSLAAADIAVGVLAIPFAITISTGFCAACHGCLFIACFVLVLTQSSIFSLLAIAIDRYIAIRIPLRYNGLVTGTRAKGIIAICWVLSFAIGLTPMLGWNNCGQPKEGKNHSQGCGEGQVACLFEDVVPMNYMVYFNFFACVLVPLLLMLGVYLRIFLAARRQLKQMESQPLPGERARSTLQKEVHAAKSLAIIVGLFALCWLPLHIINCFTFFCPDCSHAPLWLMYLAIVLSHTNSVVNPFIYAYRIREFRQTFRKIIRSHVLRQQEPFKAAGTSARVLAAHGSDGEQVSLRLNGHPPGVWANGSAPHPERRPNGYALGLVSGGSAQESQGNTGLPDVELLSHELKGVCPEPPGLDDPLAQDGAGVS

Row | inhibition [1] [%] | inhibition (Adenosine receptor A2a [3]) [%] | Ki (Adenosine receptor A3) [nM] | Ki (Adenosine receptor A1 [6]) [nM] | SMILES | further results
1 | 68.1 |  |  |  | Nc1nc(Cl)nc2c1ncn2[C@H]1[C@H](O)[C@H](O)[C@@H]2C[C@@H]21 | 
2 |  | 32 |  |  | O[C@@H]1[C@H](O)[C@@H]2C[C@@H]2[C@H]1n1cnc2c(NCc3ccccc3OCCF)nc(Cl)nc21 | inhibition [2]: 46%
3 | 28.6 |  |  |  | CCC(CC)Nc1nc(Cl)nc2c1ncn2[C@H]1[C@H](O)[C@H](O)[C@@H]2C[C@@H]21 | 
4 | 23.2 | 29 |  |  | O[C@@H]1[C@H](O)[C@@H]2C[C@@H]2[C@H]1n1cnc2c(NCCCF)nc(Cl)nc21 | 
5 |  | 11 |  |  | CCNc1nc(Cl)nc2c1ncn2[C@H]1[C@H](O)[C@H](O)[C@@H]2C[C@@H]21 | 
6 |  | 41 |  |  | CC(Nc1nc(Cl)nc2c1ncn2[C@H]1[C@H](O)[C@H](O)[C@@H]2C[C@@H]21)C1CC1 (mixture of isomers) | 
7 |  | 46 | 114 |  | O[C@@H]1[C@H](O)[C@@H]2C[C@@H]2[C@H]1n1cnc2c(NCc3cccc(OCCF)c3)nc(Cl)nc21 | Ki (Adenosine receptor A1 [4]): 3580 nM
8 | 81 |  |  | 0.8 | O[C@@H]1[C@H](O)[C@@H]2C[C@@H]2[C@H]1n1cnc2c(NCC3CC3)nc(Cl)nc21 | 
9 | 50.5 | 39 |  | 1.9 | CC(C)Nc1nc(Cl)nc2c1ncn2[C@H]1[C@H](O)[C@H](O)[C@@H]2C[C@@H]21 | 
10 |  |  |  | 0.7 | O[C@@H]1[C@H](O)[C@@H]2C[C@@H]2[C@H]1n1cnc2c(NC3CCC3)nc(Cl)nc21 | 
11 |  | 38 | 16.5 |  | O[C@@H]1[C@H](O)[C@@H]2C[C@@H]2[C@H]1n1cnc2c(NCc3cc(F)ccc3F)nc(Cl)nc21 | Ki (Adenosine receptor A1 [4]): 1260 nM
12 | 79 |  |  |  | O[C@@H]1[C@H](O)[C@@H]2C[C@@H]2[C@H]1n1cnc2c(NC3CC3)nc(Cl)nc21 | 

Second part, the molecule before the results:

Row | SMILES | inhibition [1] [%] | inhibition (Adenosine receptor A2a [3]) [%] | Ki (Adenosine receptor A3) [nM] | Ki (Adenosine receptor A1 [6]) [nM] | further results
13 | O[C@@H]1[C@H](O)[C@@H]2C[C@@H]2[C@H]1n1cnc2c(N[C@@H]3C[C@H]4CC[C@H]3C4)nc(Cl)nc21 | 27.8 |  | 236 | 0.7 | Ki (Adenosine receptor A1 [4]): 200 nM; Ki (Adenosine receptor A2a [5]): 4.08 µM
14 | O[C@@H]1[C@H](O)[C@@H]2C[C@@H]2[C@H]1n1cnc2c(NC3CCCCCC3)nc(Cl)nc21 | 48.1 |  |  |  | 
15 | O[C@@H]1[C@H](O)[C@@H]2C[C@@H]2[C@H]1n1cnc2c(NC3CCCCCCC3)nc(Cl)nc21 | 40.1 | 43 |  |  | Ratio Ki (Homo sapiens [7]): 2
16 | O[C@@H]1[C@H](O)[C@@H]2C[C@@H]2[C@H]1n1cnc2c(NC(C3CC3)C3CC3)nc(Cl)nc21 |  |  |  | 0.8 | EC50 (Adenosine receptor A1 [8]): 40.7 nM
17 | CCCCn1c(=O)c2c(ncn2[C@@H]2O[C@H](C(=O)NC)C[C@H]2O)n(CCCC)c1=O |  |  |  |  | Activity [9]: Active; Activity [10]: Active
18 | O[C@@H]1[C@H](O)[C@@H]2C[C@@H]2[C@H]1n1cnc2c(N[C@H]3C[C@H]4CC[C@H]3C4)nc(Cl)nc21 | 62.1 |  | 315 | 0.34 | Ki (Adenosine receptor A1 [4]): 82.6 nM; Ki (Adenosine receptor A2a [5]): 2.45 µM; Ratio Ki (Homo sapiens [7]): 4
19 | COc1cc(F)c(F)cc1CNc1nc(Cl)nc2c1ncn2[C@H]1[C@H](O)[C@H](O)[C@@H]2C[C@@H]21 |  |  | 40.4 |  | Ki (Adenosine receptor A1 [4]): 1910 nM; Ki (Adenosine receptor A2a [5]): 7.51 µM
20 | COc1ccc(F)c(F)c1CNc1nc(Cl)nc2c1ncn2[C@H]1[C@H](O)[C@H](O)[C@@H]2C[C@@H]21 |  | 30 | 83.2 |  | inhibition [2]: 41%
21 | CCOc1ccccc1CNc1nc(Cl)nc2c1ncn2[C@H]1[C@H](O)[C@H](O)[C@@H]2C[C@@H]21 |  | 32 | 15.2 |  | inhibition [2]: 34%
22 | O[C@@H]1[C@H](O)[C@@H]2C[C@@H]2[C@H]1n1cnc2c(NCc3ccccc3F)nc(Cl)nc21 |  | 31 |  | 6 | Ratio Ki (Homo sapiens [11]): 115
23 | O[C@@H]1[C@H](O)[C@@H]2C[C@@H]2[C@H]1n1cnc2c(NC3CCCCC3)nc(Cl)nc21 | 38 |  |  | 0.9 | Ratio Ki (Homo sapiens [7]): 2
